Measurements reported in patent US11396504B2, “Alkoxybenzo-five-membered (six-membered) heterocyclic amine compound and pharmaceutical use thereof” (FUDAN UNIVERSITY, priority 2018, dated 2022).

Key:
SMS = details: reported weak inhibitory activity; cited from earlier work
[1] = biological target: T1, Sphingomyelin Synthase 2 (SMS2 pure enzyme) (Homo sapiens, UniProt Q8NHU3); experiment: In vitro SMS2 pure enzyme inhibition, HPLC fluorogenic quantitative detecting method (C6-NBD-Ceramide to C6-NBD-SM); type: biochemical; details: for IC50: SMS2 pure enzyme, five concentrations, three parallel groups, experimental value; for Selectivity ratio: SMS1 IC50 relative to SMS2 IC50
T1 construct: Yu, Cao research group of National Protein Science Center (Shanghai)
T1 sequence (Q8NHU3 1-365): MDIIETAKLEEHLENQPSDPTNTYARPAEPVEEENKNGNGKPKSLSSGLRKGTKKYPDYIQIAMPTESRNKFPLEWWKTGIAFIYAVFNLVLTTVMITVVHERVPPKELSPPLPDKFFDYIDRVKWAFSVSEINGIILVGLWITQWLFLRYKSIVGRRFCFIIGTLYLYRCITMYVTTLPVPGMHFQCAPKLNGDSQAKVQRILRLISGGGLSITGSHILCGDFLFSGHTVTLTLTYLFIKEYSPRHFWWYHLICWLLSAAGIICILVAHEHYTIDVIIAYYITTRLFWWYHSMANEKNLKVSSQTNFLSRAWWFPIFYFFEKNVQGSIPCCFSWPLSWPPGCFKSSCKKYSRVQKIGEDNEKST
Method: Add […] SMS2 pure enzyme DDM solution (total protein content 1.5 μg/μL), 1 μL test compound in DMSO solution or blank DMSO solution, 79.7 μL DDM buffer to 1.5 mL Eppendorf tube, vortex 30 seconds, let stand at room temperature for 5 min. Then add 20 μL DDM buffer containing 1 μL DMPC in ethanol (40 mmol/L) and 1 μL C6-NBD-Ceramide in DMSO (1.16 mmol/L). After vortexing for 30 seconds, Incubate for 0.5 h under water bath at 37° C. Then remove, add 200 μL of absolute ethanol, and vortex for 30 seconds. Take out 200 μL of the mixture and store it at 4° C. for high performance liquid chromatography analysis.
(§1) Using the same HPLC fluorogenic quantitative detecting method as reference (Xiaodong Deng; Hong Sun; et al. Analytical Letters, 2012, 45:12, 1581-1589) to analyses samples obtained above. Analysize and record peak areas of C6-NBD-SM (Asm) and C6-NBD-Ceramide (Acer) of each sample from blank group, positive control group (compound D2) and under tested compound group. Calculate inhibition rate from the formula below: […]
The DMSO stock solution of under tested compound (6 mM) was diluted stepwise into five concentration gradient. 1 μL solution of each concentration was added into the trial system to prepare samples with the method mentioned in the first step of application case 15. The Asm values of the five concentration solution of tested compound were measured (compound D2 is a positive control), and the inhibition rate under the five concentration were calculated and fitted to obtain median inhibitory concentration (IC50). Each compound was measured three parallel groups. SMS2 median inhibitory concentration and SMS1 single inhibitory concentration (50 μM) of Scheme I-1˜I-38, and SMS1 median inhibitory concentration of some compounds are listed below in Table 1.

[2] = biological target: T2, Sphingomyelin Synthase 1 (SMS1 pure enzyme) (Homo sapiens, UniProt Q86VZ5); experiment: In vitro SMS1 pure enzyme inhibition, HPLC fluorogenic quantitative detecting method; type: biochemical; details: for inhibition at 50 µM: single concentration 50 μM
T2 construct: Yu, Cao research group of National Protein Science Center (Shanghai)
T2 sequence (Q86VZ5 1-413): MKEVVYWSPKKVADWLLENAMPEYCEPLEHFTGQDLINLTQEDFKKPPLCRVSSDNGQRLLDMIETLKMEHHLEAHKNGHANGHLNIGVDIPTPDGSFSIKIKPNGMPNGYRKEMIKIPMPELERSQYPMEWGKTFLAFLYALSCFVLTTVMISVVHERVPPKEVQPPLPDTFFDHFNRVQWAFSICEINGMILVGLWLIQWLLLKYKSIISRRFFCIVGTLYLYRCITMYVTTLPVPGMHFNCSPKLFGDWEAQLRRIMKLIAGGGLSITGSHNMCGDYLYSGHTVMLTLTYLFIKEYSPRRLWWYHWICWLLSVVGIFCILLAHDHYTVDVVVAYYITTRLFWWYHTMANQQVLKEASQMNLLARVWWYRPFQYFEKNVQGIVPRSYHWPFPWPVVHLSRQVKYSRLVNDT
From the text: Referring to the above SMS2 inhibitory activity detection method, and using SMS1 pure enzyme instead of SMS2 pure enzyme for corresponding operation.
as §1
Part 4. Determination of SMS1 Median Inhibitory Concentration (IC50) and SMS1 Single Concentration (50 μM) Inhibitory Concentration of Alkoxybenzeno Five- or Six-Member Heterocyclic Amines (Scheme I-1˜I-38)
The experiment can be carried out with the corresponding concentration according to the operation similar to the determination of the median inhibitory concentration (IC50) of SMS2.

IC50 [1] [µM]	inhibition at 50 µM [2] [%]	Selectivity ratio [1]	IC50 [2] [µM]	Compound	IC50 (SMS) [µM]
–	–	–	–	S=C(S)OC1CC2CC1C1CCCC21 (stereo not drawn) [Scheme D609]	375
0.945	8	–	–	N#Cc1cccc(COc2cccc3onc(Nc4cccnc4)c23)c1 [Scheme I-23, 4-((3-Cyanobenzyl)oxy)-N-(pyridin-3-yl)benzo[d]isoxazol-3-amine]	–
0.153	53	307	47	Cc1cccc(C)c1COc1cccc2onc(Nc3cccnc3)c12 [Scheme I-25, 4-((2,6-Dimethylbenzyl)oxy)-N-(pyridin-3-yl)benzo[d]isoxazol-3-amine]	–
0.079	25	886	70	Clc1cccc(Cl)c1COc1cccc2onc(Nc3cccnc3)c12 [Scheme I-26, 4-((2,6-Dichlorobenzyl)oxy)-N-(pyridin-3-yl)benzo[d]isoxazol-3-amine]	–
0.72	30	–	–	Fc1cccc(F)c1COc1cccc2onc(Nc3cccnc3)c12 [Scheme I-27, 4-((2,6-Difluorobenzyl)oxy)-N-(pyridin-3-yl)benzo[d]isoxazol-3-amine]	–
1.46	13	–	–	c1ccc(COc2cccc3snc(Nc4cccnc4)c23)cc1 [Scheme I-31, 4-(benzyloxy)-N-(pyridin-3-yl)benzo[d]isothiazol-3-amine]	–
0.86	60	–	–	Fc1ccc(Cl)c(COc2cccc3onc(Nc4cncnc4)c23)c1 [Scheme I-33, 4-((2-chloro-5-fluorobenzyl)oxy)-N-(pyrimidin-5-yl)benzo[d]isoxazol-3-amine]	–
> 10	11	–	–	CCN(CC)CC(=O)Nc1noc2cccc(OCc3cc(F)ccc3Cl)c12 [Scheme I-35, N-(4-((2-chloro-5-fluorobenzyl)oxy)benzo[d]isoxazol-3-yl)-2-(diethylamino) acetamide]	–
> 10	9	–	–	O=C(CN1CCCC1)Nc1noc2cccc(OCc3cc(F)ccc3Cl)c12 [Scheme I-36, N-(4-((2-chloro-5-fluorobenzyl)oxy)benzo[d]isoxazol-3-yl)-2-(pyrrolidin-1-y) acetamide]	–
> 10	60	–	–	O=C(CN1CCCCC1)Nc1noc2cccc(OCc3cc(F)ccc3Cl)c12 [Scheme I-37, N-(4-((2-chloro-5-fluorobenzyl)oxy)benzo[d]isoxazol-3-yl)-2-(piperidin-1-yl)acetamide]	–
> 10	-1	–	–	O=C(CN1CCOCC1)Nc1noc2cccc(OCc3cc(F)ccc3Cl)c12 [Scheme I-38, N-(4-((2-chloro-5-fluorobenzyl)oxy)benzo[d]isoxazol-3-yl)-2-morpholinoacetamide]	–
13	-6	–	–	c1ccc(-c2cc(COc3cccc4onc(Nc5cccnc5)c34)ccn2)cc1 [Scheme I-39, 4-((2-phenylpyridin-4-yl)methoxy)-N-(pyridin-3-yl)benzo[d]isoxazol-3-amine]	–
